Like-named read-outs stand apart in the source and are kept apart here.
Legend:
[1] = biological target: T1, recombinant HIV-1 p66/51 reverse transcriptase (Human immunodeficiency virus type 1 group M subtype B, UniProt P04585); test: Inhibition of p66/51 reverse transcriptase; format: biochemical
T1 construct: recombinant HIV-1 p66/51 reverse transcriptase

M184V (3TC resistant) = details: cited from earlier work
HIV-1 (wild type) = details: FDA-approved drugs; cited from earlier work
RT = RT (Human immunodeficiency virus type 1 group M subtype B, UniProt P04585); details: FDA-approved drugs; cited from earlier work
H9 cells = details: cited from earlier work
Vero cells = details: cited from earlier work
[2] = system: CEM (human lymphoblastoid) cells; details: cited from earlier work
Protease = biological target: T2, Protease (Human immunodeficiency virus type 1 group M subtype B, UniProt P04585); details: FDA-approved drugs; cited from earlier work
T2 construct: Protease

[3] = in vivo; cited from earlier work
[4] = cited from earlier work
Anti-C60 = details: measured inhibition of bovine thyroglobulin-fullerene conjugate binding by test compound; cited from earlier work
[5] = M184V, common RT mutant, FDA-approved drugs, read-out: EC50

Question: With `Cc1cn([C@H]2C[C@H](N=[N+]=[N-])[C@@H](CO[P@](=O)(O)O[P@](=O)(O)OP(=O)(O)O)O2)c(=O)[nH]c1=O` [AZTTP] as the compound, how does the inhibition at 0.001 µM ([1]; 0.001 μM) read?
Answer: Its inhibition at 0.001 µM is 8%.

Question: And the inhibition at 0.01 µM ([1]; 0.01 μM)?
Answer: Its inhibition at 0.01 µM is 35.7%.

Question: And the inhibition at 0.1 µM ([1]; 0.1 μM)?
Answer: Its inhibition at 0.1 µM is 72.7%.

Question: What about the inhibition at 1 µM ([1]; 1 μM) of the same compound?
Answer: The inhibition at 1 µM was 97%.

Question: And the inhibition at 10 µM ([1]; 10 μM)?
Answer: The inhibition at 10 µM was 99.6%.

Question: What about the “1C 90” value ([1]; p66/51 1 unit/rxn, (rA)n.(dT)12-18) of the same compound?
Answer: The value was 0.27 µM.

Question: And the IC50 ([1]; p66/51 1 unit/rxn, (rA)n.(dT)12-18, read-out: 1C 50)?
Answer: The IC50 was 21 nM.

Question: Which results are given for `Cc1cn([C@H]2C[C@H](N=[N+]=[N-])[C@@H](CO)O2)c(=O)[nH]c1=O` [AZT]?
Answer: IC50 ([1]; poly (rA)n oligo (dT)12 template primer, text b87, unit inferred, read-out: IC50 against RT): 21 nM; EC50 (M184V (3TC resistant); [5]): 10 nM; EC50 (HIV-1 (wild type)): 50 nM; RT Inhibitor (RT): yes; cytotoxicity (in words) (H9 cells): cytotoxic; cytotoxicity (in words) (Vero cells): cytotoxic; cytotoxicity (in words) [2]: cytotoxic

Question: With `CC(C)CN(C[C@@H](O)[C@H](Cc1ccccc1)NC(=O)O[C@H]1CCOC1)S(=O)(=O)c1ccc(N)cc1` [Amprenavir] as the compound, how does the EC50 (M184V (3TC resistant); [5]) read?
Answer: The EC50 was 500 nM.

Question: And the EC50 (HIV-1 (wild type))?
Answer: Its EC50 is 54 nM.

Question: And the “Protease Inhibitor” value (Protease)?
Answer: The value was “yes”.

Question: With `Nc1ccn([C@@H]2CS[C@H](CO)O2)c(=O)n1` [Compound 3TC, 3TC] as the compound, how does the EC50 (M184V (3TC resistant); [5]) read?
Answer: Its EC50 is over 100000 nM.

Question: What about the EC50 (M184V (3TC resistant); text b84, unit inferred, read-out: activity against M184V) of the same compound?
Answer: Its EC50 is over 100000 nM.

Question: And the EC50 (HIV-1 (wild type))?
Answer: Its EC50 is 180 nM.

Question: With `CC(C)(C)NC(=O)[C@@H]1CN(Cc2cccnc2)CCN1C[C@@H](O)C[C@@H](Cc1ccccc1)C(=O)N[C@H]1c2ccccc2C[C@H]1O` [Indinavir] as the compound, how does the EC50 (HIV-1 (wild type)) read?
Answer: The EC50 was about 100 nM.

Question: What about the “Protease Inhibitor” value (Protease) of the same compound?
Answer: Its value is “yes”.

Question: For `Cc1c(O)cccc1C(=O)N[C@@H](CSc1ccccc1)[C@H](O)CN1C[C@H]2CCCC[C@H]2C[C@H]1C(=O)NC(C)(C)C` [Nelfinavir], which EC50 (M184V (3TC resistant); [5]) is on record?
Answer: The EC50 was 400 nM.

Question: And the “Protease Inhibitor” value (Protease)?
Answer: The value was “yes”.

Question: What about the “Oral Bioavailability” value [3] of the same compound?
Answer: Its value is 52%.

Question: For `CC(C)c1nc(CN(C)C(=O)N[C@H](C(=O)N[C@@H](Cc2ccccc2)C[C@H](O)[C@H](Cc2ccccc2)NC(=O)OCc2cncs2)C(C)C)cs1` [Ritonavir], which EC50 (M184V (3TC resistant); [5]) is on record?
Answer: The EC50 was 800 nM.

Question: What about the EC50 (HIV-1 (wild type)) of the same compound?
Answer: The EC50 was 45 nM.

Question: And the “Protease Inhibitor” value (Protease)?
Answer: Its value is “yes”.

Question: What about the “Oral Bioavailability” value [3] of the same compound?
Answer: Its value is “˜78%”.

Question: Which results are given for `CC(C)(C)NC(=O)[C@@H]1C[C@@H]2CCCC[C@@H]2CN1C[C@@H](O)[C@H](Cc1ccccc1)NC(=O)[C@H](CC(N)=O)NC(=O)c1ccc2ccccc2n1` [Saquinavir]?
Answer: Protease Inhibitor (Protease): yes; Oral Bioavailability [3]: ˜4%

Question: For `c12c3c4c5c1c1c6c7c2c2c8c3c3c9c4c4c%10c5c5c1c1c6c6c%11c7c2c2c7c8c3c3c8c9c4c4c9c%10c5c5c1c1c6c6c%11c2c2c7c3c3c8c4c4c9c5c1c1c6c2c3c41` [unmodified C60, C60], which “toxicity in vivo (in words)” value [4] is on record?
Answer: Its value is “non toxic even at high doses”.

Question: For C3-carboxyfullerene, which Kd (Anti-C60) is on record?
Answer: Its Kd is 250 µg/mL.

Question: With D3-carboxyfullerene as the compound, how does the Kd (Anti-C60) read?
Answer: Its Kd is 38 µg/mL.

Question: For fullerenol [C], which Kd (Anti-C60) is on record?
Answer: The Kd was 750 µg/mL.
